In ChEMBL document CHEMBL3045663, “Synthesis and Activity of Novel Acaricidal/Insecticidal 2, 4-Diphenyl-1, 3-oxazolines” (J Pestic Sci, 2002):
Converted amounts (≈) assume the structure as drawn.

Assays:
[1] = system: Chilo suppressalis; assay: Insecticidal activity against Chilo suppressalis (rice stem borer) larvae assessed as inhibition of incorporation of N-acetyl-[1-14C]glucosamine; assay type: functional, organism-based
[2] = system: Myzus persicae; assay: Insecticidal activity against Myzus persicae (green peach aphid) in compound treated radish leaf assessed as mortality at 500 ppm; assay type: functional
[3] = system: Plutella xylostella; assay: Insecticidal activity against Plutella xylostella (diamondback moth) in compound treated radish leaf assessed as mortality at 500 ppm; assay type: functional
[4] = system: Nephotettix cincticeps; assay: Insecticidal activity against Nephotettix cincticeps (green rice leafhopper) in compound treated rice seedlings assessed as mortality at 500 ppm; assay type: functional
[5] = system: Tetranychus urticae; assay: Acaricidal activity against Tetranychus urticae (two-spotted spider mite) in compound treated kidney bean leaf assessed as mortality of egg at 1000 ppm at 24 degC measured after 1 week; assay type: functional; conditions: 168 h
[6] = system: Tetranychus urticae; assay: Acaricidal activity against Tetranychus urticae (two-spotted spider mite) in compound treated kidney bean leaf assessed as larvicidal activity; assay type: functional

Compound | EC50 [1] | mortality at 500 ppm [2] | mortality at 500 ppm [3] | mortality at 500 ppm [4] | mortality at 1000 ppm [5] | LC50 [6]
O=C(NC(=O)c1c(F)cccc1F)Nc1ccc(Cl)cc1 [DIFLUBENZURON] | 20 nM |  |  |  |  | 
Clc1cccc(C2=NC(c3ccccc3)CO2)c1 (stereo unspecified) |  | 0% | 60% | 0% | 10% | 100 µg/mL (≈ 388 µM)
Clc1ccc(C2=NC(c3ccccc3)CO2)cc1 (stereo unspecified) |  | 0% | 60% | 0% | 0% | 100 µg/mL (≈ 388 µM)
Fc1cccc(F)c1C1=NC(c2ccccc2)CO1 (stereo unspecified) |  | 100% | 0% | 35% | 0% | 1 µg/mL (≈ 3.86 µM)
Cc1ccc(C2=NC(c3ccccc3)CO2)cc1 (stereo unspecified) |  | 0% | 0% | 0% | 0% | > 1000 µg/mL
Fc1cccc(F)c1C1=NCC(c2ccccc2)S1 (stereo unspecified) |  | 0% | 0% | 0% | 0% | 100 µg/mL (≈ 363 µM)
Clc1ccc(C2=NC(c3ccccc3)CO2)c(Cl)c1 (stereo unspecified) |  | 0% | 10% | 0% | 10% | 10 µg/mL (≈ 34.2 µM)
CCSc1ccccc1C1=NC(c2ccccc2)CO1 (stereo unspecified) |  | 0% | 10% | 10% | 10% | 100 µg/mL (≈ 353 µM)
Cc1ccccc1C1=NC(c2ccccc2)CO1 (stereo unspecified) |  | 60% | 60% | 0% | 60% | 100 µg/mL (≈ 421 µM)
Ic1ccccc1C1=NC(c2ccccc2)CO1 (stereo unspecified) |  | 0% | 35% | 0% | 10% | 1 µg/mL (≈ 2.86 µM)
Fc1cccc(F)c1C1=NC(c2ccccc2)CS1 (stereo unspecified) |  | 0% | 0% | 0% | 0% | 10 µg/mL (≈ 36.3 µM)
CSc1ccccc1C1=NC(c2ccccc2)CO1 (stereo unspecified) |  | 0% | 35% | 0% | 0% | 100 µg/mL (≈ 371 µM)
COc1ccc(C2=NC(c3ccccc3)CO2)cc1 (stereo unspecified) |  | 0% | 0% | 10% | 0% | 100 µg/mL (≈ 395 µM)
CC1(c2ccccc2)COC(c2c(F)cccc2F)=N1 (stereo unspecified) |  | 0% | 0% | 0% | 0% | 100 µg/mL (≈ 366 µM)
c1ccc(Oc2ccccc2C2=NC(c3ccccc3)CO2)cc1 (stereo unspecified) |  | 0% | 0% | 0% | 0% | 100 µg/mL (≈ 317 µM)
Fc1ccccc1C1=NC(c2ccccc2)CO1 (stereo unspecified) |  | 0% | 35% | 10% | 10% | 10 µg/mL (≈ 41.4 µM)
Cc1cccc(C2=NC(c3ccccc3)CO2)c1 (stereo unspecified) |  | 0% | 0% | 10% | 0% | > 1000 µg/mL
Brc1ccccc1C1=NC(c2ccccc2)CO1 (stereo unspecified) |  | 0% | 60% | 0% | 10% | 0.1 µg/mL (≈ 0.331 µM)
Clc1ccccc1C1=NC(c2ccccc2)CO1 (stereo unspecified) |  | 0% | 35% | 10% | 10% | 1 µg/mL (≈ 3.88 µM)
CCOc1ccccc1C1=NC(c2ccccc2)CO1 (stereo unspecified) |  | 0% | 0% | 0% | 0% | > 1000 µg/mL
c1ccc(C2=NC(c3ccccc3)CO2)cc1 (stereo unspecified) |  | 0% | 60% | 0% | 0% | 10 µg/mL (≈ 44.8 µM)
Fc1cccc(Cl)c1C1=NC(c2ccccc2)CO1 (stereo unspecified) |  | 10% | 0% | 35% | 0% | 0.01 µg/mL (≈ 0.0363 µM)
Fc1cccc(F)c1C1=NCC(c2ccccc2)O1 (stereo unspecified) |  | 85% | 35% | 10% | 0% | 1 µg/mL (≈ 3.86 µM)
Fc1cccc(F)c1-c1nc(-c2ccccc2)co1 |  | 0% | 0% | 10% | 0% | 100 µg/mL (≈ 389 µM)
